# Test system: Lewis Lung (3LL) murine carcinoma
# Format: in vivo, Female mice C57BL/6N
# Protocol: The "in vivo" testing was performed against the Lewis Lung (3LL) murine carcinoma according to the following protocol.
# Female mice C57BL/6N were inoculated intrafootpad with tumor fragments at day 0. At day 11 the mice were anesthetized and their tumors removed surgically proximal to the popliteale limph nodes. Animals were treated intraperitoneally with the compounds of the invention from one day after surgery until the end of the experiment, day 22 (post-surgery treatment at days 12-15, 18-22). All the compounds were suspended in 0.5% methylcellulose. The mean number of the pulmonary metastases and the mean weight thereof were determined. The toxicity of the compounds of the invention at the administered dosage was also checked, as number of deaths/total no. of treated mice by the end of the experiment.
structure (smiles),measurement,setting,value
"c1cncc(C(c2c[nH]c3ccccc23)c2c[nH]c3ccccc23)c1 [example 1, 3-[bis(indol-3-yl)methyl]pyridine]",Toxicity,"mouse, in vivo, ip, 200 mg/kg/day",0/9
same,Mean weight (mg) of metastases (S.D.),"pulmonary metastases, 200 mg/kg/day intraperitoneally, post-surgery treatment day 12-15, 18-22 after tumor injection, control 197.6 (55.0)",99.2 (63.5) mg
same,Mean No. of metastases (S.D.),"pulmonary metastases, 200 mg/kg/day intraperitoneally, post-surgery treatment day 12-15, 18-22 after tumor injection, suspended in 0.5% methylcellulose, control 65.9 (11.7)",31.4 (14.0)

# Reference: patent publication EP0887348A1, “Bis-Indole derivatives having antimetastatic activity, a process for their preparation and pharmaceutical compositions containing them” (Boehringer Mannheim Italia S.p.A., priority 1997, dated 1998)
